In US20250154266A1, “ACTIVIN SIGNALING ACTIVITY” (The Johns Hopkins University, priority 2022, published 2025):

B1: Activin A: dimeric member of the TGF-β Superfamily; two Activin βA subunits (protein, UniProt P08476 311-426, looked up)
Inhibin beta A chain: GLECDGKVNICCKKQFFVSFKDIGWNDWIIAPSGYHANYCEGECPSHIAGTSGSSLSFHSTVINHYRMRGHSPFANLKSCCVPTKLRPMSMLYYDDGQNIIKKDIQNMIVEECGCS
modifications: homodimer

Legend:
[1] = system: Activin receptor-like kinase; settings: Table I, cited from earlier work; for Target: target profile in words; for Function: reported function in words
[2] = system: ALK1, ALK2, ALK3 and ALK6; settings: in words; cited from earlier work
[3] = system: ALK1, ALK2, BMPR1A, ALK4, TGFBR1, BMPR1B, and ALK7; settings: in words; cited from earlier work
naive CD4+ T cells = test: Foxp3 induction / Treg generation from naive CD4+ T cells; type: cell-based; settings: for Foxp3 induction (Foxp3+ cells): single agent, TGF-β at suboptimal concentration, Activin A in the absence of TGF-β
From the text: Since […] mediated events are important during the up-regulation of Foxp3 and the generation of Tregs from naive CD4+ T cell precursors, it was investigated whether Activin A can drive the process. Without TGF-β, as expected, Foxp3 induction was minimal.

[4] = system: SMAD phosphorylation in CD4+ T cells; test: Western blot analysis of SMAD phosphorylation in CD4+ T cells; type: cell-based
Description: Since Activins have been reported to promote SMAD signaling in non-T cells (14), it was tested whether Activins signaling in T cells could have a similar effect. SMAD activity was assessed by western blot analysis of SMAD phosphorylation.

[5] = single agent, Activin A 5 or 10 ng/ml, TGF-β 0.5 or 2 ng/ml

| Molecule | Target [1] | Function [1] | also measured |
| --- | --- | --- | --- |
| Cc1cccc(-c2[nH]c(C(C)(C)C)nc2-c2ccc3c(c2)OCO3)n1 [SB-505124] | ALK4, 5, 7 | – | – |
| c1ccc(-c2cc(-c3c[nH]nc3-c3ccccn3)ccn2)cc1 [GW-6604] | ALK4, 5, 7 | GW-6604 can prevent matrix deposition and promote hepatocyte regeneration as anti-cancer drug development. | – |
| Cc1cccc(-c2nn(C(=S)Nc3ccccc3)cc2-c2ccnc3ccccc23)n1 [Clone A-83-01, 3-(6-Methylpyridin-2-yl)-N-phenyl-4-(quinolin-4-yl)-1H-pyrazole-1-carbothioamide] | Selective inhibitor for ALK4, 5 and 7, and weak effect on ALK1, 2, 3 and 6 | A-83-01 can inhibit the activities of ALK4, 5 and 7. For other ALK receptors such as ALK1, 2, 3 and 6, A-83-01 showed weak inhibition. A-83- 01 was proved to reduce EMT. | inhibition of ALK1, ALK2, ALK3 and ALK6 [2]: weak inhibitor |
| Fc1ccc(Cl)cc1-c1nc(Nc2ccncc2)c2nccnc2n1 [SD-208] | ALK4, 5, 7 | SD-208 inhibits growth and invasiveness and enhances immunogenicity of murine and human glioma cells. | – |
| c1ccc(-c2nc3c(c(-n4ccc5cnccc54)n2)CCC3)nc1 [AZ12601011] | – | – | targets [3]: targets ALK4 and ALK7 as well as TGFBR1 |
| Cc1cccc(-c2[nH]c(C(C)(C)C)nc2-c2ccc3nccnc3c2)n1 [SB-525334] | ALK4, 5, 7 | SB-525334 has been demonstrated to block phosphorylation and Smad2/3 nuclear translocation, and inhibits renal fibrosis by reducing procollagen and PAI-1 expression. | – |
| Cc1cccc(-c2nn3c(c2-c2ccnc4ccc(C(N)=O)cc24)CCC3)n1 (atropisomer, axis not shown) [LY-2157299] | ALK4, 5, 7 | LY-2157299 is now under phase II clinical studies of its anti- carcinoma activities against glioblastoma and hepatocellular carcinoma, and has also been reported that it inhibits the tumor growth in human lung anaplastic carcinoma cells and breast carcinoma cells. | – |
| TGF-β: cytokine, inducer of Foxp3 expression and SMAD signaling | – | – | Foxp3 induction (Foxp3+ cells) (naive CD4+ T cells): modest up-regulation of Foxp3; SMAD phosphorylation (phospho-SMAD) [4, 5]: induced SMAD phosphorylation |
| B1 | – | – | Foxp3+ T cell induction (naive CD4+ T cells; combined treatment with Activin and TGF-β): synergistic promotion of Foxp3+ T cell induction; Foxp3 induction (Foxp3+ cells) (naive CD4+ T cells): comparable population of Foxp3+ cells; SMAD phosphorylation (phospho-SMAD) ([4]; combined Activin A and TGF-β treatment): even further activation of the SMAD signaling pathway; SMAD phosphorylation (phospho-SMAD) [4, 5]: elevation of phospho-SMAD |
